Each structure is given as a SMILES string. The source made the active and inactive calls. How the calls were made is not given here.

The data set deals with CCRIS mutagenicity, Ames/micronucleus/aberration tests. As to the kind of experiment: CCRIS mutagenicity studies.
The mark [1] stands for this setting: Test System: AMES SALMONELLA TYPHIMURIUM, Strain/Indicator: TA102, Metabolic Activation: NONE, Method: STANDARD PLATE.
The mark [2] stands for this setting: Test System: AMES SALMONELLA TYPHIMURIUM, Strain/Indicator: TA98, Metabolic Activation: NONE, Method: STANDARD PLATE.
[3] abbreviates: Test System: AMES SALMONELLA TYPHIMURIUM, Strain/Indicator: TA100, Metabolic Activation: NONE, Method: STANDARD PLATE.
The mark [4] stands for this setting: Test System: AMES SALMONELLA TYPHIMURIUM, Strain/Indicator: TA100, Metabolic Activation: RAT, LIVER, S-9, AROCLOR 1254, Method: STANDARD PLATE.

In the case of `O=[As]O`, the mutagenic call by setting is: (End Point: IN VITRO CHROMOSOMAL ABERRATIONS, Test System: CHINESE HAMSTER OVARY (CHO), Metabolic Activation: NONE) “active; positive (structural changes: breaks, exchanges, endoreduplication)”; (End Point: IN VITRO CHROMOSOMAL ABERRATIONS, Test System: HUMAN FIBROBLAST (HFW), Metabolic Activation: NONE) “active; positive (structural changes: breaks, fusion)”; (End Point: IN VITRO CHROMOSOMAL ABERRATIONS, Test System: HUMAN LYMPHOCYTES, Metabolic Activation: NONE, Method: FISH) “active; positive (hyperdiploidy)”; (End Point: IN VITRO CHROMOSOMAL ABERRATIONS, Test System: V79-C13 CHINESE HAMSTER CELLS, Metabolic Activation: NONE) “inactive; negative”; (End Point: IN VITRO MICRONUCLEUS, Test System: CHINESE HAMSTER OVARY CELLS, Metabolic Activation: NONE) “active; positive”; (End Point: IN VITRO MICRONUCLEUS, Test System: CHINESE HAMSTER V-79, Metabolic Activation: NONE) “active; positive”. Moreover, the mutagenic call (End Point: IN VITRO MICRONUCLEUS, Test System: HUMAN FIBROBLASTS VH25 CELLS, Metabolic Activation: NONE) is “active; positive”; the mutagenic call (End Point: IN VITRO MICRONUCLEUS, Test System: V79-C13 CHINESE HAMSTER CELLS, Metabolic Activation: NONE) was “active; positive”; the mutagenic call (End Point: In vitro chromosomal aberrations, Test System: Human peripheral lymphocytes, Metabolic Activation: None) is “active; positive”; the mutagenic call (End Point: In vitro micronucleus, Test System: Human peripheral lymphocytes, Metabolic Activation: None) is “active; positive”; the mutagenic call (End Point: In vivo micronucleus, Test System: Bone marrow polychromatic erythrocytes, Species: Mouse, Strain/Sex: C57BL/6J/Han/Male, Route: Oral) is “active; positive”; the mutagenic call under setting [1] was “inactive; negative”. The mutagenic call is, setting by setting: (Test System: MOUSE LYMPHOMA, Strain/Indicator: L5178Y (TK+/TK-), Metabolic Activation: NONE, Method: SUSPENSION/PLATE) “active; positive”; (Test System: Mouse lymphoma, Strain/Indicator: L5178Y (TK+/TK-), Metabolic Activation: None, Method: Microwell) “active; positive (statistically significant at 2 highest doses)”.
As to `COCC(=O)O`, the mutagenic call (Test System: AMES SALMONELLA TYPHIMURIUM, Strain/Indicator: TA97A, Metabolic Activation: NONE, Method: STANDARD PLATE) was “inactive; negative”; the mutagenic call (Test System: AMES SALMONELLA TYPHIMURIUM, Strain/Indicator: TA97A, Metabolic Activation: RAT, LIVER, S-9, AROCLOR 1254, Method: STANDARD PLATE) is “inactive; negative”; the mutagenic call under setting [2] is “inactive; negative”; the mutagenic call (Test System: AMES SALMONELLA TYPHIMURIUM, Strain/Indicator: TA98, Metabolic Activation: RAT, LIVER, S-9, AROCLOR 1254, Method: STANDARD PLATE) was “inactive; negative”; the mutagenic call under setting [3] is “inactive; negative”; the mutagenic call under setting [4] is “inactive; negative”. Moreover, the mutagenic call runs as follows: under setting [1], “inactive; negative”; (Test System: AMES SALMONELLA TYPHIMURIUM, Strain/Indicator: TA102, Metabolic Activation: RAT, LIVER, S-9, AROCLOR 1254, Method: STANDARD PLATE) “inactive; negative”; (Test System: CHINESE HAMSTER OVARY, Strain/Indicator: CHO AS52 (GPT)/6-THIOGUANINE, Metabolic Activation: NONE) “inactive; negative”; (Test System: CHINESE HAMSTER OVARY, Strain/Indicator: CHO-K1-BH4 (HGPRT)/6-THIOGUANINE, Metabolic Activation: NONE) “inactive; negative”; (Test System: CHINESE HAMSTER OVARY, Strain/Indicator: CHO-K1-BH4 (HGPRT)/6-THIOGUANINE, Metabolic Activation: RAT, LIVER, S-9, AROCLOR 1254) “inactive; negative”.
As for `O=C1CC(=C(Cl)Cl)C(=O)N1`, under setting [3], the mutagenic call is “active; positive”.
For the compound `Cl/C=C\CCl`, the mutagenic call runs as follows: under setting [3], “active; positive”; under setting [4], “active; positive”; (Test System: AMES SALMONELLA TYPHIMURIUM, Strain/Indicator: TA1535, Metabolic Activation: NONE, Method: STANDARD PLATE) “active; positive”; (Test System: AMES SALMONELLA TYPHIMURIUM, Strain/Indicator: TA1535, Metabolic Activation: RAT, LIVER, S-9, AROCLOR 1254, Method: STANDARD PLATE) “active; positive”; (Test System: AMES SALMONELLA TYPHIMURIUM, Strain/Indicator: TA1978, Metabolic Activation: NONE, Method: STANDARD PLATE) “active; positive”; (Test System: AMES SALMONELLA TYPHIMURIUM, Strain/Indicator: TA1978, Metabolic Activation: RAT, LIVER, S-9, AROCLOR 1254, Method: STANDARD PLATE) “active; positive”.
Consider `O=Cc1ccc(CO)o1`, for which the mutagenic call by setting is: (End Point: In vivo micronucleus, Test System: Peripheral blood normochromatic erythrocytes, Species: Mouse, Strain/Sex: B6C3F1/Female, Route: Oral) “inactive; negative”; (End Point: In vivo micronucleus, Test System: Peripheral blood normochromatic erythrocytes, Species: Mouse, Strain/Sex: B6C3F1/Male, Route: Oral) “inactive; negative”; under setting [2], “inactive; negative”; (Test System: AMES SALMONELLA TYPHIMURIUM, Strain/Indicator: TA98, Metabolic Activation: S-9, Method: STANDARD PLATE) “active; positive”; under setting [3], “inactive; negative”; (Test System: AMES SALMONELLA TYPHIMURIUM, Strain/Indicator: TA100, Metabolic Activation: S-9, Method: STANDARD PLATE) “active; positive”. The mutagenic call is, setting by setting: (Test System: AMES SALMONELLA TYPHIMURIUM, Strain/Indicator: TA104, Metabolic Activation: NONE, Method: PREINCUBATION) “inactive; negative”; (Test System: Ames Salmonella typhimurium, Strain/Indicator: TA97, Metabolic Activation: Hamster, Liver, S-9, Aroclor 1254 (10 and 30%), Method: Preincubation) “inactive; negative”; (Test System: Ames Salmonella typhimurium, Strain/Indicator: TA97, Metabolic Activation: None, Method: Preincubation) “inactive; negative”; (Test System: Ames Salmonella typhimurium, Strain/Indicator: TA97, Metabolic Activation: Rat, Liver, S-9, Aroclor 1254 (10 and 30%), Method: Preincubation) “inactive; negative”; (Test System: Ames Salmonella typhimurium, Strain/Indicator: TA98, Metabolic Activation: Hamster, Liver, S-9, Aroclor 1254 (10 and 30%), Method: Preincubation) “inactive; negative”; (Test System: Ames Salmonella typhimurium, Strain/Indicator: TA98, Metabolic Activation: None, Method: Preincubation) “inactive; negative”. Further, the mutagenic call was “inactive; negative” (Test System: Ames Salmonella typhimurium, Strain/Indicator: TA98, Metabolic Activation: Rat, Liver, S-9, Aroclor 1254 (10 and 30%), Method: Preincubation); “inactive; negative” (Test System: Ames Salmonella typhimurium, Strain/Indicator: TA98, Metabolic Activation: Rat, Liver, S-9, Aroclor 1254,10%, Method: Preincubation); “inactive; negative” (Test System: Ames Salmonella typhimurium, Strain/Indicator: TA100, Metabolic Activation: Hamster, Liver, S-9, Aroclor 1254 (10 and 30%), Method: Preincubation); “inactive; negative” (Test System: Ames Salmonella typhimurium, Strain/Indicator: TA100, Metabolic Activation: Rat, Liver, S-9, Aroclor 1254 (10 and 30%), Method: Preincubation); “inactive; negative” (Test System: Ames Salmonella typhimurium, Strain/Indicator: TA100, Metabolic Activation: Rat, Liver, S-9, Aroclor 1254,10%, Method: Preincubation); “inactive; negative” (Test System: Ames Salmonella typhimurium, Strain/Indicator: TA102, Metabolic Activation: Hamster, Liver, S-9, Aroclor 1254 (10 and 30%), Method: Preincubation). The mutagenic call is, setting by setting: (Test System: Ames Salmonella typhimurium, Strain/Indicator: TA102, Metabolic Activation: None, Method: Preincubation) “inactive; negative”; (Test System: Ames Salmonella typhimurium, Strain/Indicator: TA102, Metabolic Activation: Rat, Liver, S-9, Aroclor 1254 (10 and 30%), Method: Preincubation) “inactive; negative”; (Test System: Ames Salmonella typhimurium, Strain/Indicator: TA1535, Metabolic Activation: None, Method: Preincubation) “inactive; negative”; (Test System: CHINESE HAMSTER V-79, Strain/Indicator: V-79 (HPRT)/6-THIOGUANINE, Metabolic Activation: NONE, Method: STANDARD PLATE) “active; positive”; (Test System: E. coli, Strain/Indicator: WP2 uvrA/pKM101, Metabolic Activation: None, Method: Preincubation) “inactive; negative”; (Test System: E. coli, Strain/Indicator: WP2 uvrA/pKM101, Metabolic Activation: Rat, Liver, S-9, Aroclor 1254 (10%), Method: Preincubation) “inactive; negative”.
Turning to `C[C@H](CCC(=O)O)[C@H]1CC[C@H]2[C@@H]3[C@H](O)C[C@@H]4C[C@H](O)CC[C@]4(C)[C@H]3C[C@H](O)[C@]12C`, the mutagenic call is, setting by setting: (Test System: AMES SALMONELLA TYPHIMURIUM, Strain/Indicator: TA98, Metabolic Activation: NONE, Method: PREINCUBATION) “inactive; negative”; (Test System: AMES SALMONELLA TYPHIMURIUM, Strain/Indicator: TA98, Method: PREINCUBATION) “inactive; negative”; under setting [3], “inactive; negative”; under setting [4], “inactive; negative”.
In the case of `C1=Cc2c3ccccc3cc3cc4ccccc4c1c23`, the mutagenic call was “active; positive” under setting [2] and “active; positive” (Test System: AMES SALMONELLA TYPHIMURIUM, Strain/Indicator: TA98, Metabolic Activation: RAT, LIVER, S-9, AROCLOR 1254 (0.127 OR 1.27 MG S-9 PROTEIN), Method: STANDARD PLATE).
